Experimental data as given in patent publication US20110281944A1, “METHOD OF A RHEIN COMPOUND FOR INHIBITING PANCREATIC ISLET BETA-CELL DYSFUNCTION AND PREVENTING OR TREATING A PANCREATIC ISLET BETA-CELL DYSFUNCTION RELATED DISORDER” (Research Institute of Nephrology of Nanjing PLA, China, priority 2010, published 2011).
Values joined by “and” are separate entries in the source; they are usually repeats but may differ in a detail not shown here. Equal values may be shown once. “Also recorded” adds a separate entry of the source.

Experiments:
[1] = test system: insulin-resistant obese rats; test: Hyperglycemic clamp in obese rats after treatment with rhein for 4 weeks; type: in vivo, Wistar rats
Excerpt: (§1) Experimental animals: Insulin-resistant obese rats are 4-week in-bred female Wistar rats induced by feeding with high-sugar high-fat feedstuff (20% sugar, 10% lard, 2.5% cholesterol, 1% cholic acid and 66.5% normal feedstuff) for 3 weeks.
(§2) Administration to the experimental animals: Thirty insulin-resistant obese rats are randomly assigned to treatment group and control group. Additional fifteen normal Wistar rats of 7 week old are used as normal control group. The treatment group of insulin-resistant obese rats is treated with rhein (100 mg/Kg, dissolved in 0.1% cellulose sodium) by gavage for continuous 4 weeks. The insulin-resistant obese control group and the normal control group are administrated with 0.1% cellulose sodium by gavage.

[2] = test system: type 2 diabetic db/db mice; test: Intraperitoneal glucose tolerance test (IPGTT) on db/db mice after treatment with rhein for 8 weeks; type: in vivo; conditions: rhein 120 mg/Kg gavage 8 weeks
Method: Administration to the experimental animals: Thirty diabetic db/db mice of 4 week old are randomly assigned to treatment group and control group. Additional fifteen normal db/m mice of 4 week old are used as normal control group. The treatment group of diabetic db/db mice is treated with rhein (120 mg/Kg, dissolved in 0.1% cellulose sodium) by gavage for continuous 8 weeks. The diabetic control group of db/db mice and the normal control group of db/m mice are administrated 0.1% cellulose sodium by gavage.
Experimental methods: The intraperitoneal glucose tolerance test (IPGTT) is carried out on the mice after administration for 8 weeks. The mice are fasted overnight, and then are administrated by i.p. injection of glucose at 0.5 g/kg body weight. Blood is collected at 0, 30, 60 and 120 min for detecting whole blood glucose level and insulin level and calculating the area under the curve (AUC) of insulin. The area under the curve of insulin during 0˜30 min (AUCINS0.30) is calculated as: (insulin level at 30 min[…]insulin level at 0 min)×15, for evaluating the ability of early phase insulin secretion.

[3] = test system: pancreatic islets of type 2 diabetic db/db mice; test: Pancreatic islet isolation and perfusion, first phase insulin secretion; type: ex vivo
Method: (§3) The agents and animals used in this example are the same as those used in example 1.
Experimental methods: After 8 weeks of administration, 5 mice are randomly selected from each group for pancreatic islet isolation and perfusion as follows. After anesthesia, the opening of common bile duct at duodenal papilla for each animal is clamped in vivo. 2 ml IV type collagenase is injected at the concentration of 1 mg/ml after performing common bile duct puncture under a stereoscopic microscope. After entering the pancreatic duct reversely to expand the pancreas, the pancreas is rapidly removed. The pancreas is placed in Hank's buffer containing 1 mg/ml collagenase and digested for 40 min to remove the collagens, and then washed under vibration for several times. Pancreatic islets are successfully isolated under microscopy. The pancreatic islets are incubated in a CO2 incubator for 2 hour with 50 islets per group, and then the islets are placed into a specially manufactured constant-temperature perfusion equipment. The […] are perfused with 2.8 mM glucose using a Harvard micro-pump at 0.5 ml/min for glucose starvation perfusion, and after 30 min, perfusion of high glucose (16.7 Mm) is performed at 1 ml/min. […] The first phase insulin secretion and dynamic secretion level of insulin are reflected from the curve of insulin levels measured.

[4] = test system: pancreatic islet β-cells of db/db mice; test: Immunohistochemical insulin staining and metrology analysis of pancreatic islets (β-cell amount); type: in vivo; conditions: administration for 8 weeks
Method: as §3
Experimental methods: Immunohistochemical assay. The mice are anaesthetized with phenobarbital sodium, perfused with physiological saline via heart, and fixed with 4% polyoxymethylene. The pancreas are removed, and then placed in 4% polyoxymethylene for 4-6 hours, embedded in paraffin, and sliced into a thickness of 5 um. The slices are dewaxed with xylene, rehydrated with ethanol at different gradient concentrations, and then treated with 0.3% hydrogen peroxide at room temperature for 20 min, so as to block the activity of endogenous peroxidase. The samples are treated with steams at 121° C. under high pressure for 10 min for repairing the antigen. 10% goat serum is added for blocking non-specific antigens. Rabbit-anti-mouse insulin antibody is added, and reacted at 4° C. overnight for 14 hours. […]
Metrology analysis of pancreatic islets: All of the slices are observed with optical microscope E800 (Nikon, Japan), and photographed with a digital camera (Sony, Japan) connected with the microscope. The digital photographs are obtained via Axiovision 4.3 software, and analyzed with Image-Pro Plus 5.0.1. Fifteen pancreatic islet photographs are randomly selected for each mouse, and at least 50 pancreatic islet photographs are analyzed for each group. […]

[5] = test system: pancreatic islet β-cells of obese rats; test: Insulin expression in pancreatic islets of obese rats; type: in vivo, Wistar rats; conditions: rhein for 4 weeks, vs obese control group
Excerpt: as §1, §2

[6] = Oral absorption kinetics and pharmacokinetics of rhein in rats; type: in vivo, Wistar rats
Method: Grouping of the animals and experimental procedure: Eighteen Wistar rats (male: female=1:1; body weight=180˜210 g) are randomly divided into 3 groups, 6 animal each group (male 3, female 3). The animals are fastened but supplied with free water for 10 h, and then are administrated ig with 35 mg/kg, 70 mg/kg or 140 mg/kg rhein. Blood samples are collected from carotid artery cannula at 0.033 h, 0.083 h, 0.25 h, 0.5 h, 0.75 h, 1 h, 2 h, 3 h, 4 h, 6 h, 8 h, 12 h and 14 h after administration, and centrifuged. 50 μl plasma is used for HPLC-fluorescence (FLD) analysis. The obtained plasma rhein concentration-time data are used for calculating pharmacokinetic parameters via corresponding pharmacokinetic programmes.

[7] = rhein 100 mg/Kg by gavage for 4 weeks

O=C(O)c1cc(O)c2c(c1)C(=O)c1cccc(O)c1C2=O [rhein]
FBG (fasting blood glucose) [1, 7]: 5.3 ± 0.5 mmol/L
SSBG (steady state blood glucose) [1, 7]: 14.9 ± 0.8 mmol/L
GIR (glucose infusion rate) ([1]; rhein 100 mg/Kg by gavage for 4 weeks, Table 1): 32.2 ± 2.9 mg/kg/min
glucose infusion rate (GIR) at steady-state ([1]; treatment with rhein for 4 weeks): 26.1 ± 2.9 mg/kg/min
AUC-glucose [2]: 1834 ± 151
AUC-insulin [2]: 812 ± 80
AUCINSO-30 (AUC of insulin within 0-30 min) [2]: 63 ± 32
Blood glucose ([2]; 0 min): 7.6 ± 0.7 mmol/L
plasma insulin ([2]; 0 min): 5.3 ± 0.7 µg/L
Blood glucose ([2]; 30 min): 19.5 ± 1.5 mmol/L
plasma insulin ([2]; 30 min): 9.5 ± 1.9 µg/L
Blood glucose ([2]; 60 min): 18.3 ± 2.0 mmol/L
plasma insulin ([2]; 60 min): 6.0 ± 0.7 µg/L
Blood glucose ([2]; 120 min): 10.4 ± 1.1 mmol/L
plasma insulin ([2]; 120 min): 5.9 ± 0.6 µg/L
insulin level after high glucose stimulation relative to basal level ([3]; islets of rhein-treated db/db mice, high glucose 16.7 mmol/L for 1 min): 7 times as high as basal level
first phase insulin secretion ([3]; type 2 diabetic db/db mice, pancreatic islet perfusion): significantly improves the first phase insulin secretion; also recorded: increases the first phase insulin secretion
insulin expression level in the pancreatic islets (insulin staining) ([4]; vs db/db control group): significantly enhances insulin expression level in the pancreatic islets
amount (mass) of pancreatic islet β-cells ([4]; vs untreated db/db): increases the mass of pancreatic islet β-cells; also recorded: significantly reduces the loss of pancreatic islet β-cells
insulin expression level in the islets [5]: significantly improves the insulin expression level in the islets
Plasma rhein concentration ([6]; gavage 35 mg/kg, 0.033 h, individual rats 1-6, 35 mg/kg): 15.34 µg/mL and 19.11 µg/mL and 10.10 µg/mL and 10.54 µg/mL and 24.21 µg/mL and 9.45 µg/mL
Plasma rhein concentration ([6]; gavage 35 mg/kg, 0.033 h, mean (X) of 6 rats): 14.79 µg/mL
Plasma rhein concentration ([6]; gavage 35 mg/kg, 0.083 h, individual rats 1-6, 35 mg/kg): 22.07 µg/mL and 44.52 µg/mL and 22.33 µg/mL and 16.18 µg/mL and 40.94 µg/mL and 19.99 µg/mL
Plasma rhein concentration ([6]; gavage 35 mg/kg, 0.083 h, mean (X) of 6 rats): 27.67 µg/mL
Plasma rhein concentration ([6]; gavage 35 mg/kg, 0.25 h, individual rats 1-6, 35 mg/kg): 27.43 µg/mL and 45.05 µg/mL and 26.00 µg/mL and 26.86 µg/mL and 59.77 µg/mL and 24.59 µg/mL
Plasma rhein concentration ([6]; gavage 35 mg/kg, 0.25 h, mean (X) of 6 rats): 34.95 µg/mL
Plasma rhein concentration ([6]; gavage 35 mg/kg, 0.50 h, individual rats 1-6, 35 mg/kg): 22.01 µg/mL and 22.71 µg/mL and 28.87 µg/mL and 26.88 µg/mL and 55.32 µg/mL and 22.99 µg/mL
Plasma rhein concentration ([6]; gavage 35 mg/kg, 0.50 h, mean (X) of 6 rats): 29.80 µg/mL
Plasma rhein concentration ([6]; gavage 35 mg/kg, 0.75 h, individual rats 1-6, 35 mg/kg): 18.92 µg/mL and 18.72 µg/mL and 35.43 µg/mL and 35.51 µg/mL and 45.07 µg/mL and 15.62 µg/mL
Plasma rhein concentration ([6]; gavage 35 mg/kg, 0.75 h, mean (X) of 6 rats): 28.21 µg/mL
Plasma rhein concentration ([6]; gavage 35 mg/kg, 1.0 h, individual rats 1-6, 35 mg/kg): 19.13 µg/mL and 19.96 µg/mL and 21.75 µg/mL and 27.32 µg/mL and 37.07 µg/mL and 15.78 µg/mL
Plasma rhein concentration ([6]; gavage 35 mg/kg, 1.0 h, mean (X) of 6 rats): 23.50 µg/mL
Plasma rhein concentration ([6]; gavage 35 mg/kg, 2.0 h, individual rats 1-6, 35 mg/kg): 8.25 µg/mL and 4.26 µg/mL and 7.88 µg/mL and 7.44 µg/mL and 7.45 µg/mL and 15.41 µg/mL
Plasma rhein concentration ([6]; gavage 35 mg/kg, 2.0 h, mean (X) of 6 rats): 8.45 µg/mL
Plasma rhein concentration ([6]; gavage 35 mg/kg, 3.0 h, individual rats 1-6, 35 mg/kg): 4.03 µg/mL and 4.23 µg/mL and 4.39 µg/mL and 4.04 µg/mL and 2.99 µg/mL and 4.38 µg/mL
Plasma rhein concentration ([6]; gavage 35 mg/kg, 3.0 h, mean (X) of 6 rats): 4.01 µg/mL
Plasma rhein concentration ([6]; gavage 35 mg/kg, 4.0 h, individual rats 1-6, 35 mg/kg): 3.98 µg/mL and 4.16 µg/mL and 1.70 µg/mL and 3.75 µg/mL and 1.31 µg/mL and 4.91 µg/mL
Plasma rhein concentration ([6]; gavage 35 mg/kg, 4.0 h, mean (X) of 6 rats): 3.30 µg/mL
Plasma rhein concentration ([6]; gavage 35 mg/kg, 6.0 h, individual rats 1-6, 35 mg/kg): 3.08 μg/ml (2×) and 2.69 μg/ml and 2.89 μg/ml and 0.57 μg/ml and 0.86 μg/ml
Plasma rhein concentration ([6]; gavage 35 mg/kg, 6.0 h, mean (X) of 6 rats): 2.19 µg/mL
Plasma rhein concentration ([6]; gavage 35 mg/kg, 8.0 h, individual rats 1-6, 35 mg/kg): 4.99 µg/mL and 0.75 µg/mL and 1.94 µg/mL and 2.05 µg/mL and 1.07 µg/mL and 0.34 µg/mL
Plasma rhein concentration ([6]; gavage 35 mg/kg, 8.0 h, mean (X) of 6 rats): 1.86 µg/mL
Plasma rhein concentration ([6]; gavage 35 mg/kg, 12.0 h, individual rats 1-6, 35 mg/kg): 0.58 μg/ml and 0.18 μg/ml and 1.13 μg/ml and 1.35 μg/ml and ND (Lower than the minimal detectable concentration 0.13 μg/ml) and 0.36 μg/ml
Plasma rhein concentration ([6]; gavage 35 mg/kg, 12.0 h, mean (X) of 6 rats): 0.60 µg/mL
Plasma rhein concentration ([6]; gavage 35 mg/kg, 14.0 h, individual rats 1-6, 35 mg/kg): 0.51 μg/ml and ND (Lower than the minimal detectable concentration 0.13 μg/ml) (3×) and 0.50 μg/ml and 0.56 μg/ml
Plasma rhein concentration ([6]; gavage 35 mg/kg, 14.0 h, mean (X) of 6 rats): 0.35 µg/mL
Plasma rhein concentration ([6]; gavage 70 mg/kg, 1.0 h, individual rats 1-6, 70 mg/kg): 30.42 µg/mL and 40.86 µg/mL and 29.41 µg/mL and 35.89 µg/mL and 20.75 µg/mL and 58.65 µg/mL
Plasma rhein concentration ([6]; gavage 70 mg/kg, 1.0 h, mean (x) of 6 rats): 36.00 µg/mL
Plasma rhein concentration ([6]; gavage 70 mg/kg, 2.0 h, individual rats 1-6, 70 mg/kg): 13.29 µg/mL and 34.33 µg/mL
AUC ([6]; ig 35 mg/kg): 69.52 ± 9.13 µg·h/mL
actually-measured peak time ([6]; ig 35 mg/kg): 0.42 ± 0.26 h
calculated half life ([6]; ig 35 mg/kg): 3.22 ± 1.21 h
peak concentration ([6]; ig 35 mg/kg): 37.96 ± 12.87 µg/mL
AUC ([6]; ig 70 mg/kg): 164.29 ± 44.77 µg·h/mL
actually-measured peak time ([6]; ig 70 mg/kg): 0.50 ± 0.27 h
calculated half life ([6]; ig 70 mg/kg): 3.68 ± 1.42 h
peak concentration ([6]; ig 70 mg/kg): 54.64 ± 11.60 µg/mL
AUC ([6]; ig 140 mg/kg): 237.75 ± 42.81 µg·h/mL
actually-measured peak time ([6]; ig 140 mg/kg): 0.38 ± 0.14 h
calculated half life ([6]; ig 140 mg/kg): 4.30 ± 1.55 h
peak concentration ([6]; ig 140 mg/kg): 67.17 ± 14.62 µg/mL
pharmacokinetics in the tested dosage range (dose linearity) ([6]; ig 35-140 mg/kg): approximately linear
